Test results: patent US20250163074A1, “CDK Inhibitors And Their Use As Pharmaceuticals” (Prelude Therapeutics Incorporated, priority 2020, published 2025)

Tests used:
[1] = system: MCF7 adenocarcinoma cell line; experiment: Cell proliferation studies in MCF7 cells (ATP-Lite); assay type: cell-based; conditions: Homo sapiens, 240 h, 10 days incubation, cell viability by ATP-Lite luminescence, read-out: PROLIFERATION_CTG_MCF7 IC50
Outline: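 MCF7 cells, seeded at 100 or 200 cells/well, were exposed for 10 days at 37 °C to a 9-point, 3-fold dilution series in quadruplicate, with media exchange and re-dosing on day 5. Viability was read by ATP-Lite luminescence, normalized to background and DMSO, and fitted for IC50.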

[2] = Brain-to-plasma ratio determination in Sprague-Dawley rats; assay type: in vivo; conditions: rat, male Sprague-Dawley rats, four hours after a single oral dose (3, 4, 5, or 10 mg/kg)
Method: Example B: Brain-to-Plasma Ratio Determination in Sprague-Dawley Rats
The brain-to-plasma ratio (Kp) was determined in male Sprague-Dawley rats (7-9 weeks old) four hours after a single oral dose. Rats were acclimated and given free access to standard rodent chow and water throughout the entire study. Test articles were formulated as a solution at 0.3, 0.4, 0.5, or 1.0 mg/mL in a vehicle comprised of 10:15:75 (v:v:v) dimethylacetamide (DMA):Solutol HS15:water and delivered orally at a rate of 10 mL/kg to three rats to achieve final doses of 3, 4, 5, or 10 mg/kg, respectively. At 4 hours post-dose, blood samples were collected via jugular vein cannula into tubes containing K2EDTA as the anticoagulant and stored on ice. Blood samples were then centrifuged at 4° C. at 6000 rpm for 5 minutes, and the resulting plasma was placed into tubes and stored frozen at −80° C. until analysis. Whole brain samples were also collected at 4 hours post-dose. The weight of each brain was measured and recorded, and samples were immediately stored on dry ice. Brain samples were then transferred to storage at −80° C. until analysis.
Prior to analysis, brain samples were combined with water (4 mL/1 gram of brain) and homogenized. Prior to injection, plasma and brain homogenate samples and standards were prepared for analysis by precipitation with acetonitrile or 1:1 (v:v) methanol:acetonitrile. Samples were then thoroughly mixed, centrifuged at 4000 rpm for 15 minutes, and the resulting supernatant was transferred for analysis. Test article concentrations in plasma and brain homogenate were then determined by LC-MS/MS and quantified against calibration standards prepared to known concentrations in matched blank (analyte-free) biological matrix. The Kp was then determined by dividing the dilution-corrected brain concentration by the plasma concentration from each rat. A brain density of 1 gram/mL was assumed for all calculations.

CDK4/Cyclin D1 = CDK4/Cyclin D1 (Homo sapiens (Human), UniProt P11802); experiment: CDK4/CyclinD1 enzymatic activity assay (TR-FRET); assay type: biochemical; conditions: CDK4/CyclinD1 1 nM, ATP 2 mM, read-out: CDK4_D1 IC50
Outline: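 Insect-cell CDK4/Cyclin D1 (1 nM) with ULight-4E-BP1 (100 nM) and 2 mM ATP in HEPES pH 7.4 buffer, preincubated 20 min with compound (9-dose, 3-fold dilutions); 10 mM MgCl2 started the reaction, run 60 min at 37 °C. EDTA/Eu-anti-phospho-4E-BP1 TR-FRET detection; IC50 from 4-parameter Hill fit.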

CDK6/Cyclin D1 = CDK6/Cyclin D1 (Homo sapiens (Human), UniProt Q00534); experiment: CDK6/CyclinD1 enzymatic activity assay (TR-FRET); assay type: biochemical; conditions: CDK6/Cyclin D1 1 nM, ATP 250 μM, read-out: CDK6_D1 IC50
Method: CDK6/CyclinD1 Enzymatic Activity Assay
The inhibitory activity of compounds was evaluated in vitro using TR-FRET assay with white 384-well low volume microplate (Greiner Bio-One). CDK6/Cyclin D1 catalyzed phosphorylation of peptide in the presence and absence of compounds was measured and used in IC50 determination. Recombinant protein complex CDK6/Cyclin D1, expressed from insect cell, was purchased from ProQinase. Testing compounds were dissolved in DMSO at 0.1 mM and tested in 9-dose IC50 mode. The reaction mixture was prepared by mixing CDK6/Cyclin D1 (1 nM final), ULight-4E-BP1 (100 nM final, Perkinelmer, TRF0128-D), and ATP (250 μM final) in assay buffer (20 mM of HEPES pH 7.4, 1 mM of EGTA, 0.05% BSA, 0.005% Tween 20, and 1 mM TCEP). The compound of interest in DMSO was added to each well in 3-fold serial dilution by dispenser (TECAN D300E). After 20 minutes preincubation at room temperature, 0.1 μL MgCl2 (10 mM final) was added to initiate the reaction. Following a 60 minutes incubation at 37° C., the reaction was stopped by addition of 2 μL of quenching buffer consisting of Lance detection buffer (Perkinelmer CR97-100C), 2 nM LANCE Ultra Europium-anti-P-4E-BP1 (Perkinelmer, TRF0216-D), 10 mM EDTA, and incubate at room temperature for additional 60 minutes in dark. The reaction signal was measured by Envision multimode plate reader (PerkinElmer, 2102-0010). IC50 values were determined by fitting the data to the standard 4 parameters with Hill Slope using GraphPad Prism software.

CDK4/Cyclin D1, sequence (P11802 whole entry): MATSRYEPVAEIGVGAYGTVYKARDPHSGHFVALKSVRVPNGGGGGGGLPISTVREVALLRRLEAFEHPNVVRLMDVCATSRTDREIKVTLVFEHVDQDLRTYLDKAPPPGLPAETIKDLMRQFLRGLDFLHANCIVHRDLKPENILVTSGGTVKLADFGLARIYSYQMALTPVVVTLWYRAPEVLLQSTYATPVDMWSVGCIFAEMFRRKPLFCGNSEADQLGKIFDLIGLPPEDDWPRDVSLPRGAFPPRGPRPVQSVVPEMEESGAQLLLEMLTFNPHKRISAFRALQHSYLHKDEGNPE
CDK4/Cyclin D1, sequence (P24385 whole entry partner): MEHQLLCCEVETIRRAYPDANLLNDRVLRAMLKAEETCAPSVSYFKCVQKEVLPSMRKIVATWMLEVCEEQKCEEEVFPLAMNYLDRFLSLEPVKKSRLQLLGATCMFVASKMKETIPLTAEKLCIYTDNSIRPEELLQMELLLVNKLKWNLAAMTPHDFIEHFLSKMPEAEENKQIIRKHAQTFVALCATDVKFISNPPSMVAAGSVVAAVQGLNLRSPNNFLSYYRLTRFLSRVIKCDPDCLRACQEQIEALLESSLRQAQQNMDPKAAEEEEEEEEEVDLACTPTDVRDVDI
CDK6/Cyclin D1, sequence (Q00534 whole entry): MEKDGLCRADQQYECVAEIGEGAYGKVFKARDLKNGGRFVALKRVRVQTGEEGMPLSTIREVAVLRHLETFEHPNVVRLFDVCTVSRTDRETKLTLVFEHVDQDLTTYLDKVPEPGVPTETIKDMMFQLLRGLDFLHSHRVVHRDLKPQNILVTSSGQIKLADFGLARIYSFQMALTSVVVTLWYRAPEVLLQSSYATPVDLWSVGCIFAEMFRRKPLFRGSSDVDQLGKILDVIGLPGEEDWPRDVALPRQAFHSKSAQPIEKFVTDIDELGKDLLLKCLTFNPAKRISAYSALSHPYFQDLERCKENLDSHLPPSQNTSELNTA
CDK6/Cyclin D1, sequence (P24385 whole entry partner): as the sequence (P24385 whole entry partner) above

| SMILES | IC50 [1] | Kp at 4 h [2] | IC50 (CDK4/Cyclin D1) | IC50 (CDK6/Cyclin D1) |
| --- | --- | --- | --- | --- |
| CCN1CC2(C1)CN(c1ccc(Nc3ncc(F)c(-c4cc5c(s4)C4(CCCC4)CN(C)C5=O)n3)nc1)C2 [Example 1, 2′-(2-((5-(6-Ethyl-2,6-diazaspiro[3.3]heptan-2-yl)pyridin-2-yl)amino)-5-fluoropyrimidin-4-yl)-5′-methyl-5′,6′-dihydro-4′H-spiro[cyclopentane-1,7′-thieno[3,2-c]pyridin]-4′-one] | 20 to 200 nM | 1 to 3 | ≤ 20 nM | ≤ 20 nM |
| CN1CCC(c2ccc(Nc3ncc(F)c(-c4cc5c(s4)C4(CCCC4)CN(C)C5=O)n3)nc2)CC1 [Example 2, 2′-(5-Fluoro-2-((5-(1-methylpiperidin-4-yl)pyridin-2-yl)amino)pyrimidin-4-yl)-5′-methyl-5′,6′-dihydro-4′H-spiro[cyclopentane-1,7′-thieno[3,2-c]pyridin]-4′-one] | 20 to 200 nM | 1 to 3 | ≤ 20 nM | ≤ 20 nM |
| CCN1CCN(c2ccc(Nc3ncc(F)c(-c4cc5c(s4)C4(CCCC4)CN(C)C5=O)n3)nc2)CC1 [Example 3, 2′-(2-((5-(4-Ethylpiperazin-1-yl)pyridin-2-yl)amino)-5-fluoropyrimidin-4-yl)-5′-methyl-5′,6′-dihydro-4′H-spiro[cyclopentane-1,7′-thieno[3,2-c]pyridin]-4′-one] | 20 to 200 nM | ≥ 3 | ≤ 20 nM | ≤ 20 nM |
| CCN1CC2(C1)CN(c1ccc(Nc3ncc(F)c(-c4cc5c(s4)C4(CCCCC4)CN(C)C5=O)n3)nc1)C2 [Example 4, 2′-(2-((5-(6-Ethyl-2,6-diazaspiro[3.3]heptan-2-yl)pyridin-2-yl)amino)-5-fluoropyrimidin-4-yl)-5′-methyl-5′,6′-dihydro-4′H-spiro[cyclohexane-1,7′-thieno[3,2-c]pyridin]-4′-one] | 20 to 200 nM | 1 to 3 | ≤ 20 nM | 20 to 200 nM |
| Cc1c(-c2nc(Nc3ccc(C4CCN(C)CC4)cn3)ncc2F)sc2c1C(=O)N(C)C21CC1 [Example 6, 2′-(5-Fluoro-2-((5-(1-methylpiperidin-4-yl)pyridin-2-yl)amino)pyrimidin-4-yl)-3′,5′-dimethylspiro[cyclopropane-1,6′-thieno[2,3-c]pyrrol]-4′(5′H)-one] | 20 to 200 nM | 1 to 3 | ≤ 20 nM | ≤ 20 nM |
| CCN1C(=O)c2c(sc(-c3nc(Nc4ccc(C5CCN(C)CC5)cn4)ncc3F)c2C)C12CC2 [Example 7, 5′-Ethyl-2′-(5-fluoro-2-((5-(1-methylpiperidin-4-yl)pyridin-2-yl)amino)pyrimidin-4-yl)-3′-methylspiro[cyclopropane-1,6′-thieno[2,3-c]pyrrol]-4′(5′H)-one] | 20 to 200 nM | 1 to 3 | ≤ 20 nM | ≤ 20 nM |
| CCN1CC2(C1)CN(c1ccc(Nc3ncc(F)c(-c4sc5c(c4C)C(=O)N(C)C54CC4)n3)nc1)C2 [Example 12, 2′-(2-((5-(6-Ethyl-2,6-diazaspiro[3.3]heptan-2-yl)pyridin-2-yl)amino)-5-fluoropyrimidin-4-yl)-3′,5′-dimethylspiro[cyclopropane-1,6′-thieno[2,3-c]pyrrol]-4′(5′H)-one] | ≤ 20 nM | < 1 | ≤ 20 nM | ≤ 20 nM |
| Cc1c(-c2nc(Nc3ccc(N4CC5(CCN(C)C5)C4)cn3)ncc2F)sc2c1C(=O)N(C)C21CC1 [Example 14, 2′-(5-Fluoro-2-((5-(6-methyl-2,6-diazaspiro[3.4]octan-2-yl)pyridin-2-yl)amino)pyrimidin-4-yl)-3′,5′-di methyl spiro[cyclopropane-1,6′-thieno[2,3-c]pyrrol]-4′(5′H)-one] | ≤ 20 nM | 1 to 3 | ≤ 20 nM |  |
| Cc1c(-c2nc(Nc3ccc(C4CCCN(C)C4)cn3)ncc2F)sc2c1C(=O)N(C)C21CC1 (stereo not shown) [Example 15, 2′-(5-Fluoro-2-((5-(1-methylpiperidin-3-yl)pyridin-2-yl)amino)pyrimidin-4-yl)-3′,5′-dimethylspiro[cyclopropane-1,6′-thieno[2,3-c]pyrrol]-4′(5′H)-one] | 20 to 200 nM | 1 to 3 | ≤ 20 nM |  |
| CCN1C(=O)c2cc(-c3nc(Nc4ccc(C5CCCN(C)C5)cn4)ncc3C)sc2C12CC2 (stereo not shown) [Example 18, 5′-Ethyl-2′-[5-methyl-2-[[5-(1-methylpiperidin-3-yl)pyridin-2-yl]amino]pyrimidin-4-yl]spiro[cyclopropane-1,6′-thieno[2,3-c]pyrrole]-4′-one] | 20 to 200 nM | 1 to 3 | ≤ 20 nM |  |
| CN1CCC(c2ccc(Nc3ncc(F)c(-c4cc5c(n4C)C4(CCCC4)CN(C)C5=O)n3)nc2)CC1 [Example 74, 2′-(5-Fluoro-2-((5-(1-methylpiperidin-4-yl)pyridin-2-yl)amino)pyrimidin-4-yl)-1′,5′-dimethyl-5′,6′-dihydrospiro[cyclopentane-1,7′-pyrrolo[3,2-c]pyridin]-4′(1′H)-one] | 20 to 200 nM |  | ≤ 20 nM | 20 to 200 nM |
| CN1CCC(c2ccc(Nc3ncc(F)c(-c4cc5c(s4)C4(CCOCC4)CN(C)C5=O)n3)nc2)CC1 [Example 77, 2′-(5-Fluoro-2-((5-(1-methylpiperidin-4-yl)pyridin-2-yl)amino)pyrimidin-4-yl)-5′-methyl-2,3,5,5′,6,6′-hexahydro-4′H-spiro[pyran-4,7′-thieno[3,2-c]pyridin]-4′-one] | 20 to 200 nM |  | ≤ 20 nM | 20 to 200 nM |
| Cc1cnc(Nc2ccc(C3CCN(C)CC3)cn2)nc1-c1cc2c(s1)C1(CC1)N(C)C2=O [Example 80, 5′-Methyl-2′-(5-methyl-2-((5-(1-methylpiperidin-4-yl)pyridin-2-yl)amino)pyrimidin-4-yl)spiro[cyclopropane-1,6′-thieno[2,3-c]pyrrol]-4′(5′H)-one] | ≤ 20 nM |  | ≤ 20 nM | 20 to 200 nM |
| CCN1CC2(C1)CN(c1ccc(Nc3ncc(F)c(-c4cc5c(s4)C4(CCCC4)CN(C)C5=O)n3)nn1)C2 [Example 82, 2-[2-[[6-(6-Ethyl-2,6-diazaspiro[3.3]heptan-2-yl)pyridazin-3-yl]amino]-5-fluoropyrimidin-4-yl]-5-methylspiro[6H-thieno[3,2-c]pyridine-7,1′-cyclopentane]-4-one] | 20 to 200 nM |  | ≤ 20 nM | ≤ 20 nM |
| CCN1CCN(c2ccc(Nc3ncc(F)c(-c4cc5c(s4)C4(CCCC4)CN(C)C5=O)n3)nc2)C(=O)C1 [Example 86, 2-[2-[[5-(4-Ethyl-2-oxopiperazin-1-yl)pyridin-2-yl]amino]-5-fluoropyrimidin-4-yl]-5-methylspiro[6H-thieno[3,2-c]pyridine-7,1′-cyclopentane]-4-one] | 20 to 200 nM |  | ≤ 20 nM | 20 to 200 nM |
